B1: NM_194324 (nucleic acid, listed as Homo sapiens)
DNA: AGCACTGCAGGGCTCTGGGCGGGAAGGCTAACCTGGTGCGGAGCCAGCCTGGGTCTCAGCCCCGCGTACGGCCTTTCACGAGTCTTCAAGCCTTCAGGCTTTCTTCTAGTCAAGATGAGTGATAAACCAGACTTGTCGGAAGTGGAGAAGTTTGACAGGTCAAAACTGAAGAAAACTAATACTGAAGAAAAAAATACTCTTCCCTCAAAGGAAACTATCCAGCAGGAGAAAGAGTGTGTTCAAACATCATAAAATGGGGATCTCCTCCAAAGAGCAGATTTCAGCATTGCCTGACAGTCTTGGTTTTAGGCTTGTTTTTTTGTAAACCTGTGTGTTTGTAGAGATTTCAGACATCTTCTGATTTCTTCTCACCTATATTCCCTGGTTAAGAGGTCAGGGGTAGTGAATGTTTCCTTAAGTTCCTTTTTAAACTTCCCATTGGTATGTAAATTCCAAATGGCAGATGCTGTCAATAACCTTGCCATGGATGACCTTTGTGTAGGTAGTCCTTGCACCTCATGCAGGATAAGCCAATTTTAACTTTCTACAATGGGTGCCTCAATAGTTTCATAATCTTCATGAAGTTGCATCCTTTGGCAGCTTCTTACAGTTTATTTTCACTTCCAATGTAGCAATAAAATAATAAATATAATCGTTGTTGTCTGAAAAAAAAAAAAAAAAAA
B2: TMEM14B (nucleic acid, listed as Homo sapiens)
DNA: TTTCTCCCCGCCCTGCCGCGGCCCCGGGGCGCAGCGCGCACGCAATCGCGTTTCCGGAGAGACCTGGCTGCTGTGTCCCGCGGCTTGCGCTCCGTAGTGGACTCCGCGGGCCTTCGGCAGATGCAGGCCTGGGGTAGTCTCCTTTCTGGACTGAGAAGAGAAGAATGGAGAAGCCCCTCTTCCCATTAGTGCCTTTGCATTGGTTTGGCTTTGGCTACACAGCACTGGTTGTTTCTGGTGGGATCGTTGGCTATGTAAAAACAGGCAGCGTGCCGTCCCTGGCTGCAGGGCTGCTCTTCGGCAGTCTAGCCGGCCTGGGTGCTTACCAGCTGTATCAGGATCCAAGGAACGTTTGGGGTTTCCTAGCCGCTACATCTGTTACTTTTGTTGGTGTTATGGGAATGAGATCCTACTACTATGGAAAATTCATGCCTGTAGGTTTAATTGCAGGTGCCAGTTTGCTGATGGCCGCCAAAGTTGGAGTTCGTATGTTGATGACATCTGATTAGCAGAAGTCATGTTCCAGCTTGGACTCATGAAGGATTAAAAATCTGCATCTTCCACTATTTTCAATGTATTAAGAGAAATAAGTGCAGCATTTTTGCATCTGACATTTTACCTAAAAAAAAAAAGACACCAAATTTGGCGGAGGGGTGGAAAATCAGTTGTTACCATTATAACCCTACAGAGGTGGTGAGCATGTAACATGAGCTTATTGAGACCATCATAGAGATCGATTCTTGTATATTGATTTTATCTCTTTCTGTATCTATAGGTAAATCTCAAGGGTAAAATGTTAGGTGTTGACATTGAGAACCCTGAAACCCCATTCCCTGCTCAGAGGAACAGTGTGAAAAAAAATCTCTTGAGAGATTTAGAATATCTTTTCTTTTGCTCATCTTAGACCACAGACTGACTTTGAAATTATGTTAAGTGAAATATCAATGAAAATAAAGTTTACTATAAATAATAAAAAAAAAAAAAAAAAA
B3: NM_174931 (nucleic acid, listed as Homo sapiens)
DNA: AATAGAGTCTGCACTAGGAAACTGGTGGGAGCCGAGGTCCGGAAGTCCGACGCTGGTCGGTGGGCGCATGCGCAGCGCGCGCTCTACGGCGCTGAACCGGGGCGAGCAGAGAGCTGTCAGATACTATAGCCATATGAAGTTGAACATGGCAGAAGAAGAGGACTATATGTCTGATTCCTTCATTAATGTCCAAGAAGATATCAGACCAGGATTGCCAATGCTAAGGCAAATCCGAGAAGCCCGTCGAAAAGAAGAAAAGCAACAGGAAGCCAATTTGAAAAACAGGCAGAAGAGTTTAAAAGAAGAAGAACAAGAAAGACGTGACATTGGGTTGAAGAATGCACTAGGCTGTGAAAACAAAGGGTTTGCCTTGCTCCAAAAGATGGGCTATAAAAGTGGTCAGGCACTTGGCAAGAGTGGGGGTGGTATTGTTGAACCAATTCCTCTCAATATCAAAACAGGGAAAAGTGGCATTGGTCATGAGGCATCATTAAAACGGAAAGCAGAGGAAAAATTGGAAAGCTACAGAAAAAAGATTCACATGAAAAACCAAGCTGAAGAAAAAGCTGCAGAACAGTTTCGAATGCGACTTAAAAATAAGCAAGATGAAATGAAGCTAGAAGGAGATCTCAGAAGAAGCCAGCGAGCCTGTCAACAACTGGATGTCCAGAAAAATATTCAGGTTCCCAGGGAAGCATGGTACTGGTTGAGGCTTGAAGAGGAGACTGAAGAAGATGAAGAAGAAAAAGAACAGGATGAAGATGAATATAAGAGTGAAGATTTAAGCGTACTGGAAAAATTACAAATATTGACTAGTTATTTAAGAGAAGAACATCTATATTGTATTTGGTGTGGAACAGCCTATGAAGATAAAGAAGACCTATCTTCAAATTGTCCAGGACCAACTTCTGCAGATCATGACTAAGATTATTCCCAATAAAGTGGAAACTTGAAAAATGTTATTACTTCCTAGGGATAGACAATTTAGCAGTTGGAAATCTCAAATTTTTTATGCCAGTAAAGAAAGGGGGACTTTATATAATGTTTTGTTCTTTTTGTACTTTAGAATATGAATGTTCATTGACTTGAAAAAAATAATGCAATGGCATTTCAGAACACAAGTATCACAGAGATGGACAGTTACAATTTATTGCTATATTGTGATACGTGAGGGGTTTAAGGACACCAACAGGTAACTTCTTATTCCCCTCTTCACTTTGGAACAAATTGAGAAATAAGAAATGGGAGTCAGAGGAA

Key:
BPLER cells [1] = assay: Genome-wide siRNA lethality screen (primary screen), CellTiterGlo viability; type: cell-based, human; conditions: for MAD BPLER / Fold BPLER: siRNA pool against the gene; for MAD BPLER: MAD score of viability in BPLER cells; for Fold BPLER: fold viability in BPLER cells; for Ratio: R, BPLER versus HMLER, primary screen
HMLER cells = assay: as above; type: cell-based, human; conditions: for MAD_HMLER / Fold_HMLER: primary screen, HMLER cells; for MAD_HMLER: MAD score; for MAD HMLER: MAD score of viability in HMLER cells; for Fold HMLER: fold viability in HMLER cells
BPLER cells [2] = assay: Secondary (cherry-pick) screen with the 4 individual siRNAs of each pool; conditions: for Cherry_Score: secondary cherry-pick screen, 4 individual siRNAs of each pool
[3] = ratio of Fold_BPLER to Fold_HMLER
[4] = ratio of fold viability BPLER/HMLER
[5] = siRNA pool against the gene, fold viability
[6] = secondary screen with the 4 individual siRNAs of each pool
[7] = validation screen with individual siRNAs of each pool

Molecule | Ratio BPLER/HMLER (BPLER cells [1]; [3]) | Ratio BPLER/HMLER (BPLER cells [1]; [4]) | MAD BPLER (BPLER cells [1]) | Fold BPLER (BPLER cells [1]) | MAD_HMLER (HMLER cells; siRNA pool against the gene) | Fold_HMLER (HMLER cells; [5]) | MAD HMLER (HMLER cells; siRNA pool against the gene) | Fold HMLER (HMLER cells; siRNA pool against the gene) | Cherry_Score (BPLER cells [2]) | Cherry Score (BPLER cells [2]; [6]) | Ratio (BPLER cells [1]) | Fold_HMLER (HMLER cells; siRNA pool) | Cherry Score (BPLER cells [2]; [7])
PDCD4 | 0.73 | 0.73 | −2.81 | 0.462 | −2.25 | 0.63 | −2.25 | 0.63 | 1 | 1 | – | – | –
SLC24A3 | 0.72 | 0.72 | −2.23 | 0.637 | −0.75 | 0.88 | −0.75 | 0.88 | 1 | 1 | – | – | –
NM_148571 | – | – | – | – | – | – | – | – | – | – | 0.73 | 0.81 | 1
TSG101 | 0.66 | 0.66 | −2.45 | 0.684 | 0.23 | 1.04 | 0.23 | 1.04 | 3 | 3 | – | – | –
NM_152655 | – | – | – | – | – | – | – | – | – | – | 0.72 | 0.89 | 2
SETX | 0.70 | 0.70 | −2.40 | 0.617 | −0.72 | 0.89 | −0.72 | 0.89 | 1 | 1 | – | – | –
XM_058073 | – | – | – | – | – | – | – | – | – | – | 0.73 | 0.75 | 3
NOSTRIN | 0.67 | 0.67 | −2.06 | 0.604 | −0.69 | 0.90 | −0.69 | 0.90 | 1 | 1 | – | – | –
STIM2 | 0.72 | 0.72 | −2.39 | 0.597 | −0.99 | 0.83 | −0.99 | 0.83 | 2 | 2 | – | – | –
NUP205 | 0.73 | 0.73 | −2.88 | 0.544 | −1.57 | 0.75 | −1.57 | 0.75 | 3 | 3 | – | – | –
NM_152496 | – | – | – | – | – | – | – | – | – | – | 0.72 | 0.64 | 1
NM_032425 | – | – | – | – | – | – | – | – | – | – | 0.73 | 0.77 | 2
NM_032916 | – | – | – | – | – | – | – | – | – | – | 0.70 | 0.70 | 2
TUT1 | 0.69 | 0.69 | −1.91 | 0.680 | −0.07 | 0.99 | −0.07 | 0.99 | 2 | 2 | – | – | –
B1 | – | – | – | – | – | – | – | – | – | – | 0.74 | 0.87 | 1
B2 | 0.71 | 0.71 | −1.99 | 0.636 | −0.56 | 0.90 | −0.56 | 0.90 | 1 | 1 | – | – | –
B3 | – | – | – | – | – | – | – | – | – | – | 0.72 | 0.65 | 1

— patent US9689040B2, “Selective inhibitors of tumor-initiating cells” (Children's Medical Center Corporation, priority 2011, dated 2017)
